Results taken from the NIST ThermoML archive (doi:10.1016/j.fluid.2005.10.023).
± gives the expanded uncertainty stated by the source.

Assay: xn = mol fraction of the nth substance listed
Conditions: Gas, Other PVT measurement

CCCCCl [1-chlorobutane] + O=C=O
mass density (323.15 K, x1 = 0.0257): 347 ± 20 kg/m3 | mass density (323.15 K, x1 = 0.03): 386 ± 20 kg/m3 | mass density (323.15 K, x1 = 0.0363): 442 ± 20 kg/m3 | mass density (323.15 K, x1 = 0.04): 468 ± 20 kg/m3 | mass density (328.15 K, x1 = 0.0257): 300 ± 20 kg/m3 | mass density (328.15 K, x1 = 0.03): 343 ± 20 kg/m3 | mass density (328.15 K, x1 = 0.0363): 390 ± 20 kg/m3 | mass density (328.15 K, x1 = 0.04): 407 ± 20 kg/m3 | mass density (328.15 K, x1 = 0.0497): 467 ± 20 kg/m3 | mass density (333.15 K, x1 = 0.03): 286 ± 20 kg/m3 | mass density (333.15 K, x1 = 0.0363): 345 ± 20 kg/m3 | mass density (333.15 K, x1 = 0.04): 380 ± 20 kg/m3 | mass density (333.15 K, x1 = 0.0497): 419 ± 20 kg/m3

Clc1ccccc1 [chlorobenzene] + O=C=O
mass density (323.15 K, x1 = 0.024): 471 ± 20 kg/m3 | mass density (323.15 K, x1 = 0.0293): 507 ± 20 kg/m3 | mass density (323.15 K, x1 = 0.204): 437 ± 20 kg/m3 | mass density (328.15 K, x1 = 0.024): 441 ± 20 kg/m3 | mass density (328.15 K, x1 = 0.0293): 481 ± 20 kg/m3 | mass density (328.15 K, x1 = 0.0352): 516 ± 20 kg/m3 | mass density (328.15 K, x1 = 0.04): 534 ± 20 kg/m3 | mass density (328.15 K, x1 = 0.204): 406 ± 20 kg/m3 | mass density (333.15 K, x1 = 0.024): 417 ± 20 kg/m3 | mass density (333.15 K, x1 = 0.0293): 458 ± 20 kg/m3 | mass density (333.15 K, x1 = 0.0352): 493 ± 20 kg/m3 | mass density (333.15 K, x1 = 0.04): 516 ± 20 kg/m3 | mass density (333.15 K, x1 = 0.0482): 556 ± 20 kg/m3 | mass density (333.15 K, x1 = 0.204): 386 ± 20 kg/m3

CCCCCC [hexane] + O=C=O
mass density (323.15 K, x1 = 0.0373): 355 ± 21 kg/m3 | mass density (323.15 K, x1 = 0.0471): 451 ± 20 kg/m3 | mass density (323.15 K, x1 = 0.052): 477 ± 20 kg/m3 | mass density (328.15 K, x1 = 0.0373): 294 ± 21 kg/m3 | mass density (328.15 K, x1 = 0.0471): 396 ± 20 kg/m3 | mass density (328.15 K, x1 = 0.052): 423 ± 20 kg/m3 | mass density (328.15 K, x1 = 0.0618): 436 ± 20 kg/m3 | mass density (333.15 K, x1 = 0.0373): 249 ± 20 kg/m3 | mass density (333.15 K, x1 = 0.0471): 343 ± 20 kg/m3 | mass density (333.15 K, x1 = 0.052): 378 ± 20 kg/m3 | mass density (333.15 K, x1 = 0.0618): 392 ± 20 kg/m3

C=Cc1ccccc1 [styrene] + O=C=O
mass density (323.15 K, x1 = 0.0182): 479 ± 20 kg/m3 | mass density (323.15 K, x1 = 0.0256): 494 ± 20 kg/m3 | mass density (323.15 K, x1 = 0.03): 521 ± 20 kg/m3 | mass density (328.15 K, x1 = 0.0182): 450 ± 20 kg/m3 | mass density (328.15 K, x1 = 0.0256): 471 ± 20 kg/m3 | mass density (328.15 K, x1 = 0.03): 499 ± 20 kg/m3 | mass density (328.15 K, x1 = 0.0343): 529 ± 20 kg/m3 | mass density (328.15 K, x1 = 0.0393): 547 ± 20 kg/m3 | mass density (328.15 K, x1 = 0.0476): 580 ± 20 kg/m3 | mass density (333.15 K, x1 = 0.0182): 430 ± 20 kg/m3 | mass density (333.15 K, x1 = 0.0256): 453 ± 20 kg/m3 | mass density (333.15 K, x1 = 0.03): 479 ± 20 kg/m3 | mass density (333.15 K, x1 = 0.0343): 507 ± 20 kg/m3 | mass density (333.15 K, x1 = 0.0393): 527 ± 20 kg/m3 | mass density (333.15 K, x1 = 0.0476): 560 ± 20 kg/m3
